Laboratory results published in patent publication US12396458B2, “Fused ring substituted aromatic compound and preparation method therefor, herbicidal composition, and use thereof” (Qingdao Kingagroot Chemical Compound Co., Ltd., priority 2020, dated 2025).

Experiments:
Test in all cases: Weeding effect in post-emergence stage (greenhouse pot test)
Assay type in all cases: in vivo
Capsella bursa-pastoris = conditions: 3 weeks after application, fresh weight control rate
Source text: (§1) The activity level criteria for plant damage (i.e., growth control rate) are as follows:
(§2) Level 5: growth control rate is above 85%; • Level 4: growth control rate is greater than or equal to 60% and less than 85%; • Level 3: growth control rate is greater than or equal to 40% and less than 60%; • Level 2: growth control rate is greater than or equal to 20% and less than 40%; • Level 1: growth control rate is greater than or equal to 5% and less than 20%; • Level 0: growth control rate is less than 5%.
(§3) The above growth control rates are fresh weight control rates.
(§4) Experiment on weeding effect in post-emergence stage:
(§5) Monocotyledonous and dicotyledonous weed seeds (Descurainia sophia, Capsella bursa-pastoris, Abutilon theophrasti, Galium aparine, Stellaria media, Lithospermum arvense, Rorippa indica, Alopecurus aequalis, Alopecurus japonicus, Eleusine indica, Beckmannia syzigachne, Sclerochloa dura, Phleum paniculatum, Veronica didyma Tenore, Bromus japonicus, Aegilops tauschii, Phalaris arundinacea, Amaranthus retrojlexus, Chenopodiaceae, Commelina communis, Sonchus arvensis, convolvulus arvensis, Cirsium setosum, Solanum nigrum, Acalypha australis, Digitaria sanguinalis, Echinochloa crusgalli, Setaria viridis, Setaria glauca, Leptochloa chinensis, Monochoria vaginalis, Sagittaria trifolia, Scirpus juncoides, Cyperus rotundus, Cyperus iria, Cyperus difformis, Fimbristylis, Portulaca oleracea, Xanthium sibiricum, Pharbitis nil, Conyza japonica, etc.) and major crop seeds (wheat, corn, rice, soybean, cotton, oilseed rape, millet, sorghum, potato, sesame, ricinus, etc.) were placed in plastic pots filled with soil, then covered with 0.5-2 cm of soil, allowed to grow in a good greenhouse environment. After 2 weeks of sowing, the test plants were treated in the 2-3 leaf stage. The tested compounds of the present invention were respectively dissolved in acetone, then added with Tween 80 and 1.5 liter/ha of emulsifiable concentrate of methyl oleate as synergist, diluted with a certain amount of water to obtain a solution with a certain concentration, and sprayed with a spray tower onto the plants. After the application, the plants were cultured for 3 weeks in the greenhouse, and then the experimental results of the weeding were counted. The doses of the used compounds were 500, 250, 125, 60, 15, 7.5 g a.i./ha, and the averages were obtained by repeating for three times.

Conyza japonica = conditions: post-emergence, 3 weeks after application, fresh weight control rate
Source text: as §1, §2, §3, §4, §5

Alopecurus japonicus = conditions: dose 15 g a.i./ha, 3 weeks after application, fresh weight control rate
Source text: as §1, §2, §3, §4, §5

SMILES | Activity level (growth control rate), Capsella bursa-pastoris (Capsella bursa-pastoris; dose 15 g a.i./ha) | Activity level (growth control rate), Conyza japonica (Conyza japonica; dose 15 g a.i./ha) | other results
COC(=O)C12CCCC1C(c1cc(-n3c(=O)cc(C(F)(F)F)n(C)c3=O)c(F)cc1C(F)(F)F)=NO2 (centres unmarked) [Compound 211] | 5 (Level 5: growth control rate is above 85%) | 5 (Level 5: growth control rate is above 85%) | –
COC(=O)C12CCCC1C(c1cc(-n3c(=O)cc(C(F)(F)F)n(C)c3=O)c(F)cc1C#N)=NO2 (centres unmarked) [Compound 212] | 5 (Level 5: growth control rate is above 85%) | 5 (Level 5: growth control rate is above 85%) | –
Cn1c(C(F)(F)F)cc(=O)n(-c2cc(C3=NOC4(C(=O)OCc5ccccc5F)CCCC34)c(Cl)cc2F)c1=O (centres unmarked) [Compound 264] | 5 (Level 5: growth control rate is above 85%) | 4 (Level 4: growth control rate is greater than or equal to 60% and less than 85%) | –
CCSC(=O)C12CCCC1C(c1cc(-n3c(=O)cc(C(F)(F)F)n(C)c3=O)c(F)cc1Cl)=NO2 (centres unmarked) [Compound 334] | 5 (Level 5: growth control rate is above 85%) | 4 (Level 4: growth control rate is greater than or equal to 60% and less than 85%) | –
COC(=O)C12CCCC1(O)C(c1cc(-n3c(=O)cc(C(F)(F)F)n(C)c3=O)c(F)cc1Cl)=NO2 (centres unmarked) [Compound 351] | – | 4 (Level 4: growth control rate is greater than or equal to 60% and less than 85%) | –
COC(=O)C12CCCCC1C(c1cc(-n3c(=O)cc(C(F)(F)F)n(C)c3=O)c(F)cc1Cl)=NO2 (centres unmarked) [Compound 370] | – | – | Activity level (growth control rate), Capsella bursa-pastoris (Capsella bursa-pastoris; dose 125 g a.i./ha): 5 (Level 5: growth control rate is above 85%)
COC(=O)C12CSCC1C(c1cc(-n3c(=O)cc(C(F)(F)F)n(C)c3=O)c(F)cc1Cl)=NO2 (centres unmarked) [Compound 374] | – | – | Activity level (growth control rate), Capsella bursa-pastoris (Capsella bursa-pastoris; dose 125 g a.i./ha): 5 (Level 5: growth control rate is above 85%); Activity level (growth control rate), Conyza japonica (Conyza japonica; dose 125 g a.i./ha): 5 (Level 5: growth control rate is above 85%)
COC(=O)C12CCCC1C(c1cc(-n3c(=O)n(C)c(=S)n(C)c3=S)c(F)cc1Cl)=NO2 (centres unmarked) [Compound 395] | – | – | Activity level (growth control rate), Capsella bursa-pastoris (Capsella bursa-pastoris; dose 125 g a.i./ha): 5 (Level 5: growth control rate is above 85%)
COC(=O)C12CCCCCC1C(c1cc(-n3c(=O)cc(C(F)(F)F)n(C)c3=O)c(F)cc1Cl)=NO2 (centres unmarked) [Compound 435] | 5 (Level 5: growth control rate is above 85%) | – | –
COC(=O)C12CCCC1C(c1cc(-n3c(=O)cc(C(F)(F)F)n(C)c3=O)c(Cl)cc1Cl)=NO2 (centres unmarked) [Compound 440] | 5 (Level 5: growth control rate is above 85%) | – | –
COC(=O)C12CCC(O)C1C(c1cc(-n3c(=O)cc(C(F)(F)F)n(C)c3=O)c(F)cc1Cl)=NO2 (centres unmarked) [Compound 444] | 5 (Level 5: growth control rate is above 85%) | – | Activity level (growth control rate), Alopecurus japonicus (Alopecurus japonicus): 4 (Level 4: growth control rate is greater than or equal to 60% and less than 85%)
COC(=O)C12CC(C)CC1C(c1cc(-n3c(=O)cc(C(F)(F)F)n(C)c3=O)c(F)cc1Cl)=NO2 (centres unmarked) [Compound 456] | 5 (Level 5: growth control rate is above 85%) | 4 (Level 4: growth control rate is greater than or equal to 60% and less than 85%) | –
COC(=O)C1CC2C(c3cc(-n4c(=O)cc(C(F)(F)F)n(C)c4=O)c(F)cc3Cl)=NOC2(C(=O)OC)C1 (centres unmarked) [Compound 464] | 5 (Level 5: growth control rate is above 85%) | – | Activity level (growth control rate), Alopecurus japonicus (Alopecurus japonicus): 5 (Level 5: growth control rate is above 85%)
CCOC(=O)C12ON=C(c3cc(-n4c(=O)cc(C(F)(F)F)n(C)c4=O)c(F)cc3Cl)C1CCC2F (centres unmarked) [Compound 472] | 5 (Level 5: growth control rate is above 85%) | 4 (Level 4: growth control rate is greater than or equal to 60% and less than 85%) | –
CCOC(=O)C12ON=C(c3cc(-n4c(=O)cc(C(F)(F)F)n(C)c4=O)c(F)cc3Cl)C1CCC2=NO (centres unmarked) [Compound 491] | 5 (Level 5: growth control rate is above 85%) | – | –
COC(=O)C12CCCC1C(c1cc(-n3c(=O)cc(C(F)(F)F)n(C)c3=S)c(F)cc1Cl)=NO2 (centres unmarked) [Compound 497] | 5 (Level 5: growth control rate is above 85%) | – | –
COC(=O)C12CCCC1C(c1cc(N3C(=O)CC(=C(C)C)C3=O)c(F)cc1Cl)=NO2 (centres unmarked) [Compound 544] | – | – | Activity level (growth control rate), Capsella bursa-pastoris (Capsella bursa-pastoris; dose 125 g a.i./ha): 5 (Level 5: growth control rate is above 85%)
